TGI data for eleven molecules are collected here from PubChem BioAssay (NCI).

Each structure is given as a SMILES string.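 Values below derive from 48-hour exposures of cells grown in 96-well plates, with endpoints linearly interpolated between the two concentrations bracketing the appropriate inhibition level. TGI marks complete inhibition of growth.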

Common to all, as to experiment: DTP human tumour cell line panel, 48 h
The test system of experiment [1] is NCI-H522 lung.
Experiment [2] concerns SR leukemia.
The subject of experiment [3] is MALME-3M melanoma.
Experiment [4] relates to HOP-62 NSCLC.
In experiment [5] the test system is NCI-H226 lung.
Experiment [6] deals with HCT-15 colon.
The subject of experiment [7] is K-562 leukemia.
In experiment [8] the test system is SF-539 CNS.
Experiment [9] deals with TK-10 renal.
Experiment [10] deals with UACC-62 melanoma.

One may read the TGI as the concentration at which net growth stops. As to `O=C(Nc1c(O)[nH]c(=S)[nH]c1=O)c1ccccn1`, the total growth inhibition concentration (TGI) in experiment [1], in experiment [2], in [3], in experiment [4], in experiment [5] and in experiment [6] was greater than 100 µM in each case. Also, the TGI in [7], in experiment [8], in experiment [9] and in [10] was greater than 100 µM throughout.

With `CCOC(=O)c1ccc(N=NN(C)C(=O)C(C)N)cc1` (stereo not given), the TGI in experiment [1], in [2], in experiment [3], in [4], in experiment [5] and in experiment [6] was greater than 100 µM each time. Also, the TGI in experiment [7], in experiment [8], in experiment [9] and in [10] was greater than 100 µM in each case.

Regarding `C=CCC1(O)c2ccccc2C(=O)c2c(O)ccc(O)c21` (stereo not given), the TGI in [1] was 8.11 µM; in experiment [2] it was greater than 69.8 µM; in experiment [3], 28.8 µM; in experiment [4], greater than 86.8 µM; in experiment [5] it was greater than 43 µM; in experiment [6] it was greater than 75.7 µM. The TGI in experiment [7] was greater than 100 µM; in experiment [8], greater than 33.7 µM; in experiment [9], 47.1 µM; in experiment [10], 20.3 µM.

For the molecule `CC(C)(C)OC(=O)CN1CCNCCNCC1`, the TGI in experiment [1], in experiment [2], in experiment [3], in [4], in [5] and in [6] was greater than 100 µM throughout. Besides, the TGI in experiment [7], in [8], in experiment [9] and in experiment [10] was greater than 100 µM throughout.

Consider `C1OCC2S[C@@H]3COCO[C@@H]3C2O1` (stereo not given in full), for which the concentration for total growth inhibition (TGI) in experiment [1], in [2], in [3], in [4], in experiment [5] and in [6] was greater than 100 µM each time. In addition, the TGI in experiment [7], in experiment [8], in experiment [9] and in experiment [10] was greater than 100 µM in each case.

In the case of `COc1cc(/C=C/C(=O)OCC23CC[C@@]4(C(=O)O)CCC(C)[C@H](C)C4C2=CCC2[C@@]4(C)CC[C@H](O)C(C)(C)C4CC[C@]23C)ccc1O` (stereo not given in full), the TGI in [1] was 31.2 µM; in experiment [2] it was 61.3 µM; in experiment [3] it was 27.5 µM; in experiment [4], 28.6 µM; in experiment [5], 71.8 µM; in [6], 56.3 µM. In addition, the total growth inhibition concentration (TGI) was greater than 100 µM in experiment [7], 31.4 µM in [8], 8.9 µM in [9] and 41.9 µM in [10].

As for `CC[n+]1cnc(N)c2c(-c3ccc(Cl)cc3)cn(-c3ccc(C)cc3)c21`, the TGI in experiment [1] is 31.2 µM; in [2] it was 19.1 µM; in [3], 25.5 µM; in experiment [4], 30.5 µM; in [5] it was 28.2 µM; in experiment [6], 32.6 µM. The total growth inhibition concentration (TGI) in experiment [7] stood at 20.7 µM; in experiment [8], 28.5 µM; in experiment [9], 31.6 µM; in experiment [10] it was 24.3 µM.

Turning to `CN(C)c1nc2sc3c(c2c(=O)o1)CCCC3`, the TGI was greater than 100 µM in [1]; greater than 100 µM in [2]; greater than 100 µM in experiment [3]; greater than 100 µM in experiment [4]; 81 µM in [5]; greater than 100 µM in [6]. The TGI in experiment [7], in experiment [8], in experiment [9] and in experiment [10] was greater than 100 µM in each case.

Turning to `C=C1C(=O)OC2/C=C(\C)C(OC(C)=O)C3OC3C(C)(O)CC(OC(=O)/C(C)=C/C)C12` (stereo not given), the TGI in [1] stood at 3.37 µM; in [2] it was 23.2 µM; in [3], 21 µM; in experiment [4] it was 37.4 µM; in experiment [5], 23.4 µM; in [6], 30.8 µM. The TGI in [7] came to 18.9 µM; in experiment [8], 14.2 µM; in experiment [9] it was 24.6 µM; in [10], 23.5 µM.

In the case of `O=C(CSCC(=O)N/N=C/c1cc(I)cc(I)c1O)N/N=C/c1cc(I)cc(I)c1O`, the TGI in experiment [1] is 35 µM; in experiment [2] it was 14 µM; in [3] it was 44.3 µM; in experiment [4], 33.4 µM; in [5], 41.1 µM; in experiment [6], greater than 100 µM. Moreover, the TGI in [7] was 37.7 µM; in experiment [8] it was 38.1 µM; in [9], 31.6 µM; in experiment [10], 31.9 µM.

Take `O=C1c2ccccc2C2CNC1(O)c1ccccc12` (stereo not given): the TGI in experiment [1], in experiment [2], in experiment [3], in experiment [4], in [5] and in [6] was greater than 100 µM throughout. Besides, the TGI in experiment [7], in [8], in [9] and in [10] was greater than 100 µM in each case.
